Patent US6124352A (priority 1994, dated 2000)
≈ marks a conversion by molar mass, not a printed value.

What was measured:
[1] = test system: Candida albicans; assay: Serial Dilution Assay, Candida albicans; assay type: cell-based; conditions: 24 hours at 30°, OD 600 nm
Procedure: (§1) Serial dilution assays of 3,5-dibromo-2,6-dinitrobenzoic acid and nystatin were performed on Candida albicans, Trichophyton or Asperigillus. 9 ml (1×10^4 cells) of each diluted yeast suspension was added to 1 ml of various serial dilutions of the drug to be tested in 15 ml centrifuge tubes. The final drug concentrations ranged from 0.1 to 0.0001 mg/ml. Two control tubes were also prepared using DDW instead of a drug solution. The tubes were capped and incubated for 24 hours at 30° with shaking at 200 rpm. The fungal growth was assessed by measuring optical density at 600 nm using a nephelometer.

[2] = test system: Candida albicans; assay: Relative in vitro efficacy (growth inhibition of Candida albicans on agar replicate plates); assay type: cell-based; conditions: 100-150 cells of Candida albicans plated on replicate agar plates containing 15 μg of compound
Procedure: These relative efficacy numbers were obtained by plating 100-150 cells of Candida albicans on replicate agar plates containing 15 μg of the named compound and by determining the relative growth inhibition of each compound.

[3] = Acute intravenous toxicity (LD50); assay type: in vivo; conditions: mouse, in vivo; mice, one intravenous dose, observed for 14 days
Procedure: (§2) The acute intravenous toxicity of 3,5-dibromo-2,6-dinitrobenzoic acid in mice is assessed by determining the mean lethal dose (LD50) using a well-known method. Mice are fed a standard laboratory diet for 8-10 weeks. Five animals of each sex are administered one intravenous dose of 3,5-dibromo-[…] acid. The animals are observed for 14 days, and the number of deaths noted.

[4] = test system: Trichophyton; assay: Serial Dilution Assay, Trichophyton; assay type: cell-based; conditions: 24 hours at 30°, OD 600 nm
Procedure: as §1

[5] = test system: Asperigillus; assay: Serial Dilution Assay, Aspergillus; assay type: cell-based
Procedure: as §1

[6] = test system: Candida albicans; assay: In Vitro fungicidal test (number of colonies/plate); conditions: for Number of Colonies/Plate, Plate No. 1 / Number of Colonies/Plate, Plate No. 2 / Number of Colonies/Plate, Plate No. 3 / Number of Colonies/Plate, Plate No. 4 / Number of Colonies/Plate, Plate No. 5 / Number of Colonies/Plate, Plate No. 6 / Number of Colonies/Plate, Plate No. 7 / Number of Colonies/Plate, Plate No. 8 / Number of Colonies/Plate, Plate No. 9: drug final concentration 0.1 mg/ml, 80 min at 30° C., plates 48 hours; for Number of Colonies/Plate, Plate No. 1: plate 1; for Number of Colonies/Plate, Plate No. 2: plate 2; for Number of Colonies/Plate, Plate No. 3: plate 3; for Number of Colonies/Plate, Plate No. 4: plate 4; for Number of Colonies/Plate, Plate No. 5: plate 5; for Number of Colonies/Plate, Plate No. 6: plate 6; for Number of Colonies/Plate, Plate No. 7: plate 7; for Number of Colonies/Plate, Plate No. 8: plate 8; for Number of Colonies/Plate, Plate No. 9: plate 9
Procedure: The 10% wlw malt extract, 2% agar solution used for plating in this test was prepared by mixing 100 g malt extract, 20 g agar, and a pellet of sodium hydroxide (about 0.1 g) in 1 liter of distilled, deionized water (DDW). This solution was sterilized by autoclaving, and then poured into plates.
The yeast-malt (YM) broth was composed of 3 g yeast extract, 3 g malt extract, 5 g peptone, and 10 g glucose in 1 liter DDW. The solution was brought to pH 7.2 with inorganics (e.g., hydrochloric acid or sodium hydroxide), then sterilized by autoclaving.
Stock solutions of the drugs to be tested were made in a mixture of dimethylformamide (DMF) and 0.05 M phosphate buffer at pH 7.2, combined in a 4:6 ratio of DME to buffer. Test solutions of 1 mg/ml solutions were prepared.
Two control solutions were prepared. One was the phosphate buffer as described above, the other was a mixture of DMF and the buffer in a 4:6 ratio as described above.
All drug and control solutions were sterilized by filtration through a 0.2 g filter.

[7] = test system: mice; conditions: mouse, in vivo; cited from earlier work
[8] = test system: Pneumocystis carinii; assay: Pneumocystis carinii short term culture, viability by incorporation of [3H] para-aminobenzoic acid; assay type: cell-based; conditions: fungus removed from rat lungs, read-out: IC50 against Pneumocystis carinii
Procedure: (§3) In comparison, the IC50 of pentamidine, the agent now widely used to counter P. carinii fungus infections, was 2 μg/ml.

[9] = test system: mice; assay: Acute intravenous toxicity (LD50); assay type: in vivo; conditions: one intravenous dose, observed for 14 days
Procedure: as §2

[10] = test system: bacteria; assay: Activity against bacteria, second independent laboratory (standard agar dilution method); assay type: cell-based; conditions: Isosensitest agar
Procedure: (§4) The second laboratory compared the minimum inhibitory concentrations (μg/ml) of 3,5-dichloro-2,6-dinitrobenzoic acid and Amphotericin B, an antifungal agent. The strains were plated, in the standard agar dilution method, on Isosensitest agar containing a single antifungal agent. […] As such, when Amphotericin B is tested in agar, its activity appears higher than it would in vivo.

[11] = test system: wide range of fungi; assay: Minimum inhibitory concentration, second independent laboratory (standard agar dilution method), fungi; assay type: cell-based; conditions: Isosensitest agar
Procedure: as §4

[12] = test system: C. albicans C316; assay: Stability and activity against C. albicans C316 in various broth media; assay type: cell-based; conditions: even in the presence of 50% mouse serum
Procedure: as §3

[13] = Water solubility; assay type: physicochemical; conditions: in words
[14] = test system: nine fungal strains (Candida spp., Cryptococcus neoformans, Aspergillus fumigatus); assay: Minimum inhibitory concentration, first independent laboratory (broth); assay type: cell-based; conditions: HR/Mops broth and Sabouraud dextrose broth
Procedure: Additional in vitro evaluation of the antifungal activity of the compounds was performed by two independent testing laboratories. One laboratory found the minimum inhibitory concentration (μg/ml), in fungal strains, of 3,5-dichloro-2,6-dinitrobenzoic acid to range from 1.56 to 6.3 when nine fungal strains (Candida spp., Cryptococcus neoformans, Aspergillus fumigatus) were tested in HR/Mops broth and Sabouraud dextrose broth.

[15] = read-out: final concentration at which fungal growth was completely inhibited

Compound | Relative In Vitro Efficacy [2] | Number of Colonies/Plate, Plate No. 1 [6] | Number of Colonies/Plate, Plate No. 2 [6] | Number of Colonies/Plate, Plate No. 3 [6] | Number of Colonies/Plate, Plate No. 4 [6] | Number of Colonies/Plate, Plate No. 5 [6] | Number of Colonies/Plate, Plate No. 6 [6] | Number of Colonies/Plate, Plate No. 7 [6] | Number of Colonies/Plate, Plate No. 8 [6] | Number of Colonies/Plate, Plate No. 9 [6] | also measured
O=C(O)c1c([N+](=O)[O-])c(Br)cc(Br)c1[N+](=O)[O-] [Example 1, 3,5-dibromo-2,6-dinitrobenzoic acid] | 100 | – | – | – | – | – | – | – | – | – | MIC [1, 15]: 1.5 µg/mL (≈ 4.06 µM); LD50 at 336 h [3]: ~240 mg/kg; MIC [4, 15]: 1.5 µg/mL (≈ 4.06 µM); MIC ([5]; 24 h, read-out: final concentration at which fungal growth was completely inhibited): 1.5 µg/mL (≈ 4.06 µM)
CC(=O)N1CCN(c2ccc(OCC3COC(Cn4ccnc4)(c4ccc(Cl)cc4Cl)O3)cc2)CC1 (centres unmarked) [Ketoconazole, ketoconazole] | – | 82 | 39 | 37 | 94 | 103 | 78 | 120 | 122 | 95 | –
C[C@@H]1[C@H](O)[C@@H](C)/C=C/C=C/CC/C=C/C=C/C=C/C=C/C(O[C@H]2O[C@H](C)[C@@H](O)[C@H](N)[C@@H]2O)CC2O[C@](O)(CC(O)C(O)CCC(O)CC(O)CC(O)CC(=O)O[C@H]1C)CC(O)C2C(=O)O (some centres unmarked) [nystatin, reference compound] | – | – | – | – | – | – | – | – | – | – | final concentration at which fungal growth was completely inhibited [1]: 1.5 µg/mL; toxicity compared with the compound of the invention tested [7]: significantly higher toxicity than the compound of the invention tested; final concentration at which fungal growth was completely inhibited [4]: 1.5 µg/mL; final concentration at which fungal growth was completely inhibited ([5]; Asperigillus, 24 hours at 30°, OD 600 nm): 1.5 µg/mL
O=C(O)c1cc([N+](=O)[O-])c(Cl)c([N+](=O)[O-])c1Cl [2,4-dicholoro-3,5-dinitro benzoic acid] | 10 | – | – | – | – | – | – | – | – | – | –
N=C(N)c1ccc(OCCCCCOc2ccc(C(=N)N)cc2)cc1 [pentamidine, reference compound] | – | – | – | – | – | – | – | – | – | – | IC50 [8]: 2 µg/mL (≈ 5.87 µM)
2,4-dibromo-3,5-dinitrobenzoic acid | – | – | – | – | – | – | – | – | – | – | LD50 [9]: 240 mg/kg
O=C(O)c1c([N+](=O)[O-])c(Cl)cc(Cl)c1[N+](=O)[O-] [Example 2, 3,5-dichloro-2,6-dinitrobenzoic acid] | 100 | 22 | 4 | 3 | 31 | 28 | 33 | 20 | 19 | 25 | IC50 [8]: 17 µg/mL (≈ 60.5 µM); fungicidal activity relative to amphotericin B ([6]; from Table 2): about twice as effective as amphotericin B; fungicidal activity relative to ketoconazole ([6]; from Table 2): about four times as effective as ketoconazole; activity against bacteria [10]: not against bacteria; fungal inhibition compared with Amphotericin B ([11]; agar-plate conditions optimized for Amphotericin B): less fungal inhibition than Amphotericin B; MIC ([11]; wide range of fungi): 4 to 31 µg/mL (≈ 14.2 to 110 µM); stability and activity against C. albicans C316 [12]: remained stable and active; water solubility [13]: water soluble; MIC [14]: 1.56 to 6.3 µg/mL (≈ 5.55 to 22.4 µM)
COC(=O)c1c([N+](=O)[O-])c(Br)cc(Br)c1[N+](=O)[O-] [Example 4, methyl 3,5-dibromo-2,6-dinitrobenzoate] | 4 | – | – | – | – | – | – | – | – | – | –
C[C@@H]1[C@H](O)[C@@H](C)/C=C/C=C/C=C/C=C/C=C/C=C/C=C/[C@H](O[C@@H]2O[C@H](C)[C@@H](O)[C@H](N)[C@@H]2O)C[C@@H]2O[C@](O)(C[C@@H](O)C[C@@H](O)[C@H](O)CC[C@@H](O)C[C@@H](O)CC(=O)O[C@H]1C)C[C@H](O)[C@H]2C(=O)O [Amphotericin B, amphotericin B] | – | 50 | 15 | 9 | 56 | 51 | 48 | 55 | 65 | 64 | –
